Test results taken from ChEMBL document CHEMBL1201862, “PubChem BioAssay data set” (2004).
Activity calls are given as the source filed them.

Key:
[1] = biological target: Cytochrome P450 2C9 (Homo sapiens, UniProt P11712)
[2] = biological target: T1, Protein skinhead-1 (Caenorhabditis elegans, UniProt P34707); assay type: functional
T1 sequence (P34707 whole entry): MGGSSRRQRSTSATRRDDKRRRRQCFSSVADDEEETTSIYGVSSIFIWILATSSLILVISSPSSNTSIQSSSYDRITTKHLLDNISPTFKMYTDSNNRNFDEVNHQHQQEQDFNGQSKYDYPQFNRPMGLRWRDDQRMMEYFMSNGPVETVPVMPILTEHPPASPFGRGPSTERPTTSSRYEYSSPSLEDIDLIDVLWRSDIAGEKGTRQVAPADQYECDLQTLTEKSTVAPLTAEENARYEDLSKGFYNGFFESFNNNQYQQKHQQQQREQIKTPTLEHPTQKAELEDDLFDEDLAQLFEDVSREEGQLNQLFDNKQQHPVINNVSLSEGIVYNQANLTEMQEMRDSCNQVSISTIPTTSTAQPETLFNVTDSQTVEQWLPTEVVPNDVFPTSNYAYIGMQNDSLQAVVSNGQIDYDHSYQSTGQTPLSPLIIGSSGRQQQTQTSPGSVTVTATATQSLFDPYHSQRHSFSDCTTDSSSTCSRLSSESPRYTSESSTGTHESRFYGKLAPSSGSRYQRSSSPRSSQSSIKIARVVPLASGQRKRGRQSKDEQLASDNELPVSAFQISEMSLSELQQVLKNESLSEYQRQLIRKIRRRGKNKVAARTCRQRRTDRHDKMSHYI

[3] = biological target: Cytochrome P450 2D6 (Homo sapiens, UniProt P10635);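 note: CYP2D6 member of a cytochrome P450 panel assay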
[4] = biological target: T2, RNA-binding protein pos-1 (Caenorhabditis elegans, UniProt G5EF15); test: disruptors of C. elegans POS-1 RNA interaction – biochemical, fluorescence polarization, dose response (AID 1964);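 note: purified POS-1 fused to maltose binding protein made in E. coli; potency of compounds blocking POS-1 binding to fluorescent RNA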
T2 sequence (G5EF15 whole entry): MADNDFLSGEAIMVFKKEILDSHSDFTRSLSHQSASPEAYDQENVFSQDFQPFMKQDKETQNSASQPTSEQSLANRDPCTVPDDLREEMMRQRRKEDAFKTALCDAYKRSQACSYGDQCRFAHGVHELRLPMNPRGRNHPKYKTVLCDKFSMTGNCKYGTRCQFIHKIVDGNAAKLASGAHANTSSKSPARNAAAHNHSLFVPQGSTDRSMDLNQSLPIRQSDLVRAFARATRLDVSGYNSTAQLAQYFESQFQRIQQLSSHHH

[5] = biological target: T3, Zinc finger protein mex-5 (Caenorhabditis elegans, UniProt Q9XUB2); test: potency of MEX-5 RNA-binding blockers – biochemical, C. elegans, fluorescence polarization, dose response (AID 1960)
T3 sequence (Q9XUB2 whole entry): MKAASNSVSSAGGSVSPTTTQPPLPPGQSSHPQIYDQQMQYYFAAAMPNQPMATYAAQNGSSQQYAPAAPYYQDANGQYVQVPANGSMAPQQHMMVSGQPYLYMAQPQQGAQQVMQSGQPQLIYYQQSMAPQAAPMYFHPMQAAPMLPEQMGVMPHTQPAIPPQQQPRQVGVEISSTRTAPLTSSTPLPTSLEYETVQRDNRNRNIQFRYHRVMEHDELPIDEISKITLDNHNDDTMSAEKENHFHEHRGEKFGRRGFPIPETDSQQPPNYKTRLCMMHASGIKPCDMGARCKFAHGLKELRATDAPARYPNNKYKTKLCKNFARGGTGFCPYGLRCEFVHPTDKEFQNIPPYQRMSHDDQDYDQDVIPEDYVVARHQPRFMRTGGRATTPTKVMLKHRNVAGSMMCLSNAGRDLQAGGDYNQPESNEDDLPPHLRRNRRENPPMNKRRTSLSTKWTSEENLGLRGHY

[6] = tested on: INS1; test: INS-1E survival protection against cytokine death – cell-based, luminescence, retest, dose response (AID 449756); assay type: functional; details: Rattus norvegicus;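 note: cell death triggered by IL-1 beta plus TNF-alpha plus IFN-gamma mixture; protective hits raise ATP signal compared with cytokine alone wells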
[7] = viability of uninfected HEp-2 cells – cell-based, HTS, cytotoxicity control for RSV inhibitor project, dose response (AID 2410); assay type: functional; details: human respiratory syncytial virus
[8] = tested on: Streptococcus sp. 'group A'; test: Streptococcus pyogenes SK(-)GAS viability under kanamycin – luminescence, BacTiterGlo, confirmation, counter-screen for streptokinase expression inhibitor project, dose response (AID 1900); assay type: functional, organism-based
[9] = biological target: T4, Streptokinase A (Streptococcus pyogenes serotype M1, UniProt P10520); test: viability-normalized secreted streptokinase activity reduction – plasminogen activation absorbance, OD405, dose response (AID 1914); assay type: functional, Streptococcus pyogenes M1 GAS;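 note: secreted streptokinase activity via plasminogen activation per viability signal from cell pellet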
T4 sequence (P10520 whole entry): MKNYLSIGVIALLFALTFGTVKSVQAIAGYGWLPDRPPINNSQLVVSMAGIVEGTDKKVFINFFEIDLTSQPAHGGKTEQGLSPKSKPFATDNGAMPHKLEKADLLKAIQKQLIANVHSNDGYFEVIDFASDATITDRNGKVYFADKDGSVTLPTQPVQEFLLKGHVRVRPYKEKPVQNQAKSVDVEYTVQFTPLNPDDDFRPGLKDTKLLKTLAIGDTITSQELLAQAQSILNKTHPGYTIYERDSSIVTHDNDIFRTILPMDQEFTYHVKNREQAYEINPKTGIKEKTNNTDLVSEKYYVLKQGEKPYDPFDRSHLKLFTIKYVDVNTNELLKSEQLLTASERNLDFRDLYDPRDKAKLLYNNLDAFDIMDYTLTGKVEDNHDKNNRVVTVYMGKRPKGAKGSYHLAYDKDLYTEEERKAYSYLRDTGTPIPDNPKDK

[10] = tested on: Streptococcus; test: GAS UMAA2166 growth inhibition – luminescence, BacTiterGlo, counter-screen for streptokinase expression inhibitor project, dose response (AID 1915); assay type: functional, organism-based;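 note: potency for reduction of bacterial viability or growth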
[11] = biological target: Cytochrome P450 2C19 (Homo sapiens, UniProt P33261); test: Cytochrome panel assay with activity outcomes. Panel member name: p450-cyp2c19 Compounds with AC50 equal or less than 10 uM are considered active; assay type: functional; details: read-out: AC50
[12] = biological target: T5, Cytochrome P450 1A2 (Homo sapiens, UniProt P05177);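 note: PubChem cytochrome P450 panel assay, CYP1A2 panel member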
T5 sequence (P05177 whole entry): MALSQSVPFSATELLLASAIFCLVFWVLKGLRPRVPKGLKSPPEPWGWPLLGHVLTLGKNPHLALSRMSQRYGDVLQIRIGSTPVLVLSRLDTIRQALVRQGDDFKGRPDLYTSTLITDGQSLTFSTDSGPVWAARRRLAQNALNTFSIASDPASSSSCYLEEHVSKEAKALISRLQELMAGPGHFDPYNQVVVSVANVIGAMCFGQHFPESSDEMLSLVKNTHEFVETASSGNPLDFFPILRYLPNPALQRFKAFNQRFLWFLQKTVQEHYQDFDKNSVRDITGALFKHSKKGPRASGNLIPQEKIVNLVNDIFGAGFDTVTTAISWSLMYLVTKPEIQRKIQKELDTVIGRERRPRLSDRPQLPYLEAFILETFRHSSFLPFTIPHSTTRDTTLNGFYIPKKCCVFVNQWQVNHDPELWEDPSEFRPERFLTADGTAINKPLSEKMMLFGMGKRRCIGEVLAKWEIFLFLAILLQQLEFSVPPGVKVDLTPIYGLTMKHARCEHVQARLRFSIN

[13] = Luminescence Cell-Based Dose Response HTS to Identify Activators of Luciferase Translation or Activity in H4 […] Cells. [Related pubchem assays: 1829 (Project Summary), 1814 (Primary HTS)]; assay type: functional
[14] = tested on: H4; test: Luminescence Cell-Based Dose Response HTS to Identify Activators of 5'UTR Stem-Loop Driven Prion Protein mRNA Translation in H4 Neuroglioblastoma Cells. [Related pubchem assays: 1829 (Project Summary), 1814 (Primary HTS)]; assay type: functional; details: Homo sapiens
[15] = reduction of Shn3 3'UTR-driven luciferase in osteoblasts – cell-based, Clone20 osteoblasts, firefly luciferase, cherry-picked, dose response (AID 624132); assay type: functional;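 note: firefly luciferase luminescence from reporter carrying the Shn3 3'UTR in osteoblasts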
[16] = non-specific 3'UTR reporter inhibition in Clone20-Shn3RL – cell-based, Renilla luciferase, cherry-picked, counter-screen for Shn3 inhibitor project, dose response (AID 624133); assay type: functional

Sequence of Cytochrome P450 2C19 (P33261 whole entry): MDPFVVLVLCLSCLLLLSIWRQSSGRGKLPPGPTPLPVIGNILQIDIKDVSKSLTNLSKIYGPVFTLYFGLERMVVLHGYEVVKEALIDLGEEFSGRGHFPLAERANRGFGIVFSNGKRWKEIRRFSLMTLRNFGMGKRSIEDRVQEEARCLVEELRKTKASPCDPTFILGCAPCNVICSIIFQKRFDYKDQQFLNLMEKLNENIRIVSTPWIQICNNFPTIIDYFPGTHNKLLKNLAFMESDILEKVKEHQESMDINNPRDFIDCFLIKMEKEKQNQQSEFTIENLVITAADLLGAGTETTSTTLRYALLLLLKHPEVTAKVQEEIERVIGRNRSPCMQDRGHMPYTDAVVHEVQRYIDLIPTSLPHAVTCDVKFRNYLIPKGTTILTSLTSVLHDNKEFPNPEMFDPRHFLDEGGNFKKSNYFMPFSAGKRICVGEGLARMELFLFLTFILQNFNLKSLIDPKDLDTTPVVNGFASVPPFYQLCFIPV
Sequence of Cytochrome P450 2C9 (P11712 whole entry): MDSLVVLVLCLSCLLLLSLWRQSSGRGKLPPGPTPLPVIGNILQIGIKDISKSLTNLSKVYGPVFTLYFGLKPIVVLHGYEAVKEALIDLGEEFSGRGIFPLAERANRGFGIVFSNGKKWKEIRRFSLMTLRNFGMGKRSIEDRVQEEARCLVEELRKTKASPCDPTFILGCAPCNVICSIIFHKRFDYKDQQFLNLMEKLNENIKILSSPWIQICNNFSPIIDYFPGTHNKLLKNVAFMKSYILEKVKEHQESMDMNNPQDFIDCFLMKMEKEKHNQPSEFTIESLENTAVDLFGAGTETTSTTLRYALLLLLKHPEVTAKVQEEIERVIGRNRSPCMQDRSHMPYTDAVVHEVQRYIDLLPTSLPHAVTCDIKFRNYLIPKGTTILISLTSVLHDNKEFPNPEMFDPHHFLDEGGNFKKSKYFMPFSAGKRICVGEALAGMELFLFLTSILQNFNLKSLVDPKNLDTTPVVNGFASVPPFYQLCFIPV
Sequence of Cytochrome P450 2D6 (P10635 whole entry, the tested form may be a part): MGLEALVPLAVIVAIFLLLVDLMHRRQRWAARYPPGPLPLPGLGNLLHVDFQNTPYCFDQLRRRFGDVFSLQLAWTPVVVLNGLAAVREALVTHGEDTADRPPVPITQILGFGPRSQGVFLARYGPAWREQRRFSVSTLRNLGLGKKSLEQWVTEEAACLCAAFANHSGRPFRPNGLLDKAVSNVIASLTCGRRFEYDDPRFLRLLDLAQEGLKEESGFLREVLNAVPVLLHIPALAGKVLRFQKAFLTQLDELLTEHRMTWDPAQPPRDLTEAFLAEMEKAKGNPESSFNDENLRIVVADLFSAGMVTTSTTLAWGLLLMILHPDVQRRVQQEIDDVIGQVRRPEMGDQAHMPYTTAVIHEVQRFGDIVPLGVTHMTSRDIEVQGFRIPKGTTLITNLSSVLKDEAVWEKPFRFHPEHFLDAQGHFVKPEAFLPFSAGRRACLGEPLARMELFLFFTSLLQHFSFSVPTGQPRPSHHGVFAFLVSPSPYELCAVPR

SMILES: O=c1c(CCc2ccccc2)nc2cnc(Nc3ccccc3)nc2n1C[C@H]1CCCO1
- AC50 [1]: 20 µM (inconclusive)

SMILES: Clc1ccccc1-c1ncc(-c2ccccc2)o1
- IC50 [2]: 37.3 µM (active)

SMILES: COc1ccc2[nH]cc(CCNc3nc(-c4ccc(C(=O)N(C)C)cc4)nc4ccccc34)c2c1
- AC50 [3]: 20 µM (inconclusive)
- AC50 [1]: 1 µM (inconclusive)

SMILES: COc1ccc(NC(=O)c2sc3nc(-c4cccnc4)ccc3c2N)cc1
- EC50 [4]: 40.6 µM (inconclusive)
- EC50 [5]: 4.79 µM (active)

SMILES: N#Cc1c(Nc2ccccc2)sc(C(=O)c2ccc(F)cc2)c1N
- AC50 [6]: 20.9 µM (active)

SMILES: COc1cccc(C(=O)NCC2CCN(c3ccc(S(=O)(=O)N4CCOCC4)cc3)CC2)c1
- EC50 [4]: > 300 µM (not active)
- EC50 [5]: > 300 µM (not active)

SMILES: Cc1cc(/C=C2\C(=O)NC(=O)N(c3ccc(Cl)cc3)C2=O)c(C)n1C
- EC50 [4]: 63.5 µM (active)

SMILES: O=C(Nc1ccc2ccccc2c1)c1ccc(NS(=O)(=O)c2ccc(Br)s2)cc1
- CC50 [7]: > 50 µM (active)
- EC50 [8]: 2 µM (active)
- EC50 [9]: > 150 µM (not active)
- EC50 [10]: 5.03 µM (active)

SMILES: O=C1CC(=O)C(n2cncn2)C(c2cccc(Cl)c2)C1 (centres undefined)
- AC50 [11]: 3.98 µM (inconclusive)
- AC50 [1]: 25.1 µM (inconclusive)

SMILES: C=CCC1CCCCC1=C(C#N)c1ccccc1 (centres undefined)
- IC50 [2]: > 100 µM (inactive)

SMILES: O=[N+]([O-])c1cccc(-c2c(-c3ccccc3)ncc3cc(F)ccc23)c1
- IC50 [2]: 88.7 µM (inactive)

SMILES: c1ccc(C(c2ccccc2)N2CC[C@@]3(CCCNC3)C2)cc1
- AC50 [1]: 31.6 µM (inconclusive)

SMILES: Cc1ccccc1Oc1cc(NC(=O)CCCn2nc(C)c([N+](=O)[O-])c2C)cc([N+](=O)[O-])c1
- AC50 [6]: 6.96 µM (active)

SMILES: CCCCOc1ccc(C(=O)NC)cc1
- IC50 [2]: > 100 µM (inactive)

SMILES: Cc1cc(C)n(C(=O)CCCCCCCCC(=O)n2nc(C)cc2C)n1
- AC50 [12]: 15.8 µM (inconclusive)
- AC50 [1]: 0.251 µM (inconclusive)

SMILES: Cc1c(NC(=O)/C(C#N)=C/c2ccc(-c3ccc(Cl)c(Cl)c3)o2)c(=O)n(-c2ccccc2)n1C
- CC50 [7]: 13.3 µM (active)
- IC50 [2]: > 100 µM (inactive)

SMILES: Cn1cc(/C=N\NC(=O)c2cccs2)c2ccccc21
- EC50 [13]: 50.3 µM (active)
- EC50 [14]: 37.7 µM (active)

SMILES: COCCNC(=O)CSc1ncnc2sccc12
- AC50 [1]: 28.2 µM (inconclusive)

SMILES: COc1cc(CNCc2cccs2)cc(Br)c1OC
- AC50 [1]: 1.41 µM (inconclusive)

SMILES: O=c1c2ccccc2oc2ccc(Oc3ccccc3)cc12
- IC50 [2]: 22.5 µM (active)

SMILES: Cc1cccc(C(C)(C)C)c1OCCN1CCCC1
- AC50 [15]: 34.2 µM (active)
- AC50 [16]: 9.87 µM (active)

SMILES: N#CC1(Nc2ccc(-c3ccc(Cl)cc3)cc2)CCCC1
- IC50 [2]: 26.1 µM (active)

SMILES: N#Cc1ccc(C(=O)Nc2nc(-c3cccs3)c(C(=O)C(F)(F)F)s2)cc1
- AC50 [6]: 4.75 µM (active)

SMILES: COc1cccc(/C=N/NC(=O)c2cc(-c3ccccn3)nc3ccccc23)c1O
- AC50 [6]: 1.8 µM (active)

SMILES: CCOC(=O)C1CCN(C(=O)c2sc3nc(C)nc(N4CCC(C)CC4)c3c2C)CC1
- AC50 [15]: 5.26 µM (active)
- AC50 [16]: 9.01 µM (active)

SMILES: COc1ccc(Br)cc1CN(C)CC(O)COc1ccc(Br)cc1 (centres undefined)
- IC50 [2]: > 100 µM (inactive)

SMILES: CC(Sc1nnc(C(C)N(C)C)n1-c1ccc(Cl)cc1)C(=O)Nc1ccc2c(c1)OCO2 (centres undefined)
- AC50 [1]: 15.8 µM (inconclusive)

SMILES: N#Cc1cc2c(nc1SCC(=O)Nc1sc3c(c1C#N)CCC3)CCCC2
- EC50 [13]: > 120 µM (not active)
- EC50 [14]: 16 µM (active)

SMILES: O=c1cnc2cnc(Oc3cccc(Cl)c3)nc2n1C[C@H]1CCCO1
- AC50 [11]: 39.8 µM (inconclusive)
- AC50 [1]: 15.8 µM (inconclusive)

SMILES: COc1cccc(C(=O)Nc2ccc(-c3nnc(-c4ccco4)o3)cc2)c1
- AC50 [11]: 2.82 µM (inconclusive)
- AC50 [1]: 1.41 µM (inconclusive)

SMILES: O=C1/C(=C/c2cccs2)CCc2ccccc21
- IC50 [2]: 18.6 µM (active)

SMILES: COc1cccc(-c2cncnc2NCCc2c[nH]c3ccc(OC)cc23)c1
- AC50 [1]: 0.1 µM (inconclusive)

SMILES: O=c1sc(/C=N/Nc2ccccc2)c(Cl)n1Cc1ccccc1
- EC50 [13]: > 120 µM (not active)
- EC50 [14]: 21.4 µM (active)

SMILES: COCCn1cnnc1SCC(=O)Nc1cccc(S(=O)(=O)N2CCCCC2)c1
- IC50 [2]: > 100 µM (inactive)

SMILES: Cc1ccc(NC2=NC(=O)/C(=C\c3ccc(C)s3)S2)cc1
- IC50 [2]: > 100 µM (inactive)

SMILES: O=c1cnc2cncnc2n1Cc1ccccc1Cl
- AC50 [3]: 20 µM (inconclusive)
- AC50 [12]: 15.8 µM (inconclusive)
- AC50 [1]: 20 µM (inconclusive)
